“Also recorded” adds a separate entry of the source.

Data set [1] deals with ZF-responsive promoter. Kind of data set: Inducible repression of a fluorescent protein using ERT2 and SMASh domains, Jurkat. The settings on record: 6 days; KRAB-, HP1a-, EED-ZF-ERT2-SMASh lines. The format is cell-based, human. Here is the method:
Inducible synthetic transcriptional repression of a fluorescent protein in human cell lines using […] domains: Three Jurkat T cell lines were tested: (1) KRAB-[…] (3) […]. […] Absence of a SMASh-responsive small molecule (GZV) in the negative control led to significant “leaky” repression in the absence of 4OHT (see e.g., FIG. 18).

Data set [2] relates to ZF-responsive promoter. Kind of data set: Dual-drug regulated IL4 and CD19-CAR expression in CD4+ primary human T cells. The format is cell-based. An excerpt:
(see e.g., FIG. 14A-14B).

The subject of data set [3] is ZF-responsive promoter. Kind of data set: 4OHT-inducible transcriptional activation of a fluorescent protein using ERT2 domain, Jurkat. In kind it is cell-based, human. An excerpt: ERT2 nuclear translocation domain, which is responsive to a small molecule (4-hydroxytamoxifen=4OHT), can be used to regulate a synTF as described herein (see e.g., Indra et al. Nucleic Acids Res (1999)). The human estrogen receptor (ER) contains a ligand responsive domain that, when fused to other protein domains, can yield ligand-dependent control over activity. The domain naturally associates with cytoplasmic factors in the cell in the absence of cognate ligands, effectively sequestering itself in the cytoplasm. Binding of cognate ligands, such as estrogen or other steroid hormone derivatives, cause a conformational change to the receptor that allow dissociation from the cytoplasmic complexes and expose a nuclear localization signal, permitting translocation into the nucleus.
Subsequently, the administration of 4OHT can allow conditional nuclear translocation of the synTF, allowing synTF functionality in the cellular nucleus (see e.g., FIG. 4).
Output fluorescence was measured as a function of several different 4OHT treatment concentrations as indicated (dose response; see e.g., FIG. 8A).

The test system of data set [4] is ZF-responsive promoter. Kind of data set: Inducible synthetic transcriptional repression of a fluorescent protein, HEK293. The settings on record: compared to untreated. In kind it is cell-based, human. Here is the method:
Tunable gene silencing can also be achieved using small molecule inducible synTFs. Inducible synTFs were engineered that were capable of repressing gene expression. The responsive promoter was modified to constitutively express a fluorescent output. The p65 activation domain was replaced with a KRAB repression domain (human-derived silencer), and the same ZF-drug pairs were utilized as the synTF activators. Inducibility profiles were determined for each of the three inducible synTF repressors in HEK cell lines, and there was strong silencing of reporter expression over time in drug-treated lines relative to untreated cell lines (see e.g., FIG. 11A-11B, 12A-12C).

Data set [5] concerns ZF-responsive promoter. Kind of data set: Tunable activation of a fluorescent protein by co-administered 4OHT and GZV, ERT2 and SMASh domains, Jurkat. The format is cell-based, human. The settings on record: co-administration of varying 4OHT and GZV for 4 days. Here is the method:
Tunable synthetic transcriptional activation of a fluorescent protein in human cell lines using ERT2 and SMASh domains: Two Jurkat T cell lines were tested: (1) ZF-p65-ERT2-SMASh (C-terminal SMASh) and (2) SMASh-ZF-p65-ERT2 (N-terminal SMASh).

In data set [6] the test system is ZF-responsive promoter. Put plainly: Activation and tunable deactivation of a fluorescent protein using ERT2 and SMASh domains, Jurkat. The format is cell-based, human. The method, then: Inducible synthetic transcriptional activation and tunable deactivation of a fluorescent protein in human cell lines using ERT2 and SMASh domains: Three Jurkat T cell lines were tested: (1) ZF-p65-ERT2 (no SMASh, see e.g., FIG. 4); (2) ZF-p65-ERT2-SMASh (C-terminal SMASh); and (3) SMASh-ZF-p65-ERT2 (N-terminal SMASh) (see e.g., FIG. 16A). […] Absence of a SMASh-responsive small molecule (grazoprevir) for 12 days led to equivalent, slow deactivation of the reporter to baseline levels. […] This rapid deactivation of the reporter was compared to the condition lacking the SMASh domain, which led to equivalent slow deactivation as in the “absence of grazoprevir” condition (see e.g., FIG. 16B).

Data set [7] relates to ZF-responsive promoter. Put plainly: Small molecule inducible synTF activation of fluorescent reporter in HEK293 and Jurkat cell lines. In kind it is cell-based, human. The settings on record: both HEK293 and Jurkat cell lines; compared to untreated. An excerpt:
Output fluorescence as a function of several different small molecule (e.g., ABA, 4OHT, or grazoprevir) treatment concentrations is also indicated here.
Inducible synTFs were first characterized using GFP (or another detectable marker such as mCherry) as the reporter. The whole system was introduced into Jurkat T cells via lentiviral transduction with multiplicity of infection of 25 to ensure high efficiency, quantifying viral copy number (VCN) with qPCR. To characterize the inducible synTF controllers, cells at 5×10^4 cells each in 96-well plates were inoculated with lentivirus, and eight different drug concentrations were added spanning three orders of magnitude (e.g., GZV 0-10 μM, 4OHT 0-1 μM), and GFP expression levels can be quantified with flow cytometry (see e.g., FIG. 10A-10D). Gene expression levels can be normalized to VCN. From these dose-responses, the dynamic range and threshold of activation can be defined. Since the single vector design can lack a selection marker, transduction efficiency was assumed to be equal to the percentage of GFP positive cells after induction by 4OHT or GZV.
Tunable gene activation was achieved using small molecule inducible synTFs. Inducibility profiles were determined for each of the three inducible synTF activators, in both HEK293 and Jurkat cell lines. The reporter expression was evaluated across time and varying drug concentrations. Day 4 represented the highest levels of expression that were assayed, indicating strong inducible expression in drug-treated lines relative to untreated cell lines (see e.g., FIG. 10A-10D).

The test system of data set [8] is ZF-responsive promoter. Put plainly: Inducible activation of IL10 in Jurkat T cell lines, double or single lentiviral vector. The format is cell-based, human. The settings on record: 1 uM GZV for 2 days. An excerpt: This inducible activation can be achieved through the delivery of separate lentiviral cassettes for NS3-synTF expression and IL10 production (“double lentiviral vector”), or through the delivery of a single lentiviral cassette expressing the NS3-synTF as well as regulating IL10 production (see e.g., FIG. 15A-15C).
A single lentiviral vector was engineered that was capable of expressing a grazoprevir-inducible synTF that would in turn regulate expression of IL-10. The size of this entire insert including expression elements was 3.5 kB, which is minimal and […] the total payload packaging limits of certain vectors.

In data set [9] the test system is ZF-responsive promoter. Put plainly: Grazoprevir-inducible transcriptional repression of a fluorescent protein, HEK293 and Jurkat. In kind it is cell-based, human. Particulars: compared to untreated.
Data set [10] relates to CD19 antigen-presenting target cells. Put plainly: Co-culture of induced CD19-CAR primary T cells with CD19 antigen-presenting target cells, cytokine production. The format is cell-based, human. An excerpt: (§1) Output fluorescence as a function of several different grazoprevir treatment concentrations is also indicated here. […] Cytokine production as a function of several different grazoprevir treatment concentrations is also indicated here (see e.g., FIG. 13A-13D).
(§2) Inducible synTFs can regulate […] expression in primary cells. The grazoprevir-inducible synTF was used to control expression of a CD19-CAR in primary CD4+ cells. […] Such results highlight that the ability to reliably control expression of outputs from therapeutic, thus controlling their functionalities in increasingly complex settings (see e.g., FIG. 13A-13D).

Data set [11] has as its system ZF-responsive promoter. Kind of data set: Inducible activation of CD19-CAR in CD4+ primary human T cells. The format is cell-based.
Text: as §1, §2

The conditions of data set [12]: commonly taken at 100 mg/day for up to 12 weeks; cited from earlier work.
Data set [13] concerns ZF-responsive promoter. Put plainly: Grazoprevir-inducible transcriptional activation of a fluorescent protein using NS3, Jurkat. In kind it is cell-based, human. An excerpt:
Non-structural protein 3 (NS3) domain can be used for small molecule regulated control over synTF activity (see e.g., Lin et al. PNAS (2008)). The non-structural protein 3 (NS3) is a serine protease originating from the hepatitis C virus and is naturally capable of self-excision from expressed proteins.
Subsequently, the administration of one of these small molecules—e.g. grazoprevir—can prevent self-excision of NS3 from the fusion protein, allowing the ZF and effector domains to remain locally coupled and retaining synTF functionality.
In the presence of a small molecule, the NS3 protease activity is inhibited and the fusion protein complex is stabilized, permitting the transcription factor to regulate expression of an output gene from a responsive promoter (see e.g., FIG. 5A-5C).
Output fluorescence was measured as a function of several different grazoprevir treatment concentrations as indicated (dose response) (see e.g., FIG. 9A).

Data set [14] relates to ZF-responsive promoter. Put plainly: ABA-inducible transcriptional activation of a fluorescent protein using ABI/PYL domains, Jurkat. The format is cell-based, human. An excerpt: ABI/PYL induced proximity domains that are responsive to a small molecule (abscisic acid=ABA) can be used to regulate a synTF as described herein (see e.g., Liang et al. Sci Signal, 2011). The ABA-insensitive 1 (ABI1) and PYR1-like (PYL) domains originating form Arabidopsis thaliana have complementary surfaces that can conditionally interact when coordinated by the small molecule abscisic acid (ABA). ABA is a plant hormone that is naturally present at low levels within the human diet, and is subsequently presumed to be a safe small molecule for human administration.
Subsequently, the administration of ABA can allow conditional dimerization between the ABI1 and PYL subunits, allowing the ZF and effector domains to remain locally coupled and retaining synTF functionality (see e.g., FIG. 3).
Output fluorescence was measured as a function of several different ABA treatment concentrations as indicated (dose response; see e.g., FIG. 7A).

Where [15] appears, read: compared to untreated cell line.

As to `CC/C(=C(\c1ccc(O)cc1)c1ccc(OCCN(C)C)cc1)c1ccccc1` [4OHT, 4-hydroxytamoxifen], the “fluorescent protein on administration of 4OHT, repressor synTFs” value in data set [1] was “temporal repression of a fluorescent protein”. The IL4 expression result in data set [2] (ERT2-synTF) was “expression and secretion of IL4 cytokine”. The “fluorescent protein output on administration of small molecule” value in data set [3] (setting [15]) and in data set [7] was “temporal activation of a fluorescent protein output” throughout. Also, in [3] (removal after four days), the “fluorescent protein output on removal of small molecule” value (from here on “fluorescent protein output on removal”) is “temporal de-activation of a fluorescent protein output”. Besides, the “fluorescent protein output, synTF with repressor effector domain” value (from here on “fluorescent protein output, synTF”) in [4] is on record as “temporal silencing of a fluorescent protein output”. In addition, the “level of fluorescent protein activation” value in data set [5] is given as “maximal activation”. Besides, the “fluorescent protein on administration of 4OHT” value in data set [6] (4 days, all three Jurkat lines) was “temporal activation of a fluorescent protein”. Moreover, in data set [6] (removal from days 6-16, all cell lines), the “fluorescent protein on removal of 4OHT” value is recorded as “temporal deactivation of the fluorescent protein”.
`C=C[C@@H]1C[C@]1(NC(=O)[C@@H]1C[C@@H]2CN1C(=O)[C@H](C(C)(C)C)NC(=O)O[C@@H]1C[C@H]1CCCCCc1nc3ccc(OC)cc3nc1O2)C(=O)NS(=O)(=O)C1CC1` [grazoprevir]: in [8], the IL10 expression entry is given as “temporal activation of a cytokine (IL10); also recorded: strong induced expression of IL-10”. The “fluorescent protein output, synTF” value in data set [9] and in data set [4] was “temporal silencing of a fluorescent protein output” in each case. Also, the “CD19-CAR expression in dual-drug context” value in data set [2] (orthogonal ZF-responsive promoter) is given as “regulated activation of a fluorescently-tagged chimeric antigen receptor (CD19-CAR) protein”. The “T-cell activation, cytokine production (IFNgamma, IL-2)” value in data set [10] is “T-cell activation, measured by enhanced production of cytokines; also recorded: dose-dependent production of IFNgamma and IL-2 cytokines”. The CD19-CAR expression result in [11] (CD4+ primary human T cells, several grazoprevir concentrations over time) is given as “temporal activation of a fluorescently-tagged chimeric antigen receptor (CD19-CAR) protein; also recorded: dose-dependent expression of synTF”. Also, in [11] (day 3, highest concentration), the CD19-CAR fold induction result was “strong fold induction”. Further, in [5], the “level of fluorescent protein activation” value is given as “little-to-no activation”. In addition, in data set [12], the safety profile entry was “exceptional safety profile”. Further, the “reporter deactivation with SMASh-responsive small molecule” value in [6] (grazoprevir for 12 days after 4OHT removal) is reported as “fast deactivation of the reporter to the baseline levels”. Moreover, the “fluorescent protein output on administration of small molecule” value in data set [7] and in [13] (setting [15]) was “temporal activation of a fluorescent protein output” each time. Moreover, in data set [13] (removal after four days), the “fluorescent protein output on removal” value is listed as “temporal de-activation of a fluorescent protein output”.
On to `CC1=CC(=O)CC(C)(C)[C@@]1(O)/C=C/C(C)=C\C(=O)O` [ABA, abscisic acid], for which the “fluorescent protein output, synTF” value in data set [4] is reported as “temporal silencing of a fluorescent protein output”. The “fluorescent protein output on administration of small molecule” value in data set [14] (setting [15]) and in [7] was “temporal activation of a fluorescent protein output” throughout. Moreover, in data set [14] (removal after four days), the “fluorescent protein output on removal” value is listed as “temporal de-activation of a fluorescent protein output”.

Values taken from patent US11530246B2, “Regulated synthetic gene expression systems” (TRUSTEES OF BOSTON UNIVERSITY, priority 2019, dated 2022).
